{"source": "patent US9409915B2", "about": "“Substituted aza-bicyclic imidazole derivatives useful as TRPM8 receptor modulators” (Janssen Pharmaceutica NV, priority 2010, dated 2016)", "molecular_target": "canine TRPM8 (Canis lupus familiaris, UniProt Q1A7N1)", "sequence (Q1A7N1 1-1104)": "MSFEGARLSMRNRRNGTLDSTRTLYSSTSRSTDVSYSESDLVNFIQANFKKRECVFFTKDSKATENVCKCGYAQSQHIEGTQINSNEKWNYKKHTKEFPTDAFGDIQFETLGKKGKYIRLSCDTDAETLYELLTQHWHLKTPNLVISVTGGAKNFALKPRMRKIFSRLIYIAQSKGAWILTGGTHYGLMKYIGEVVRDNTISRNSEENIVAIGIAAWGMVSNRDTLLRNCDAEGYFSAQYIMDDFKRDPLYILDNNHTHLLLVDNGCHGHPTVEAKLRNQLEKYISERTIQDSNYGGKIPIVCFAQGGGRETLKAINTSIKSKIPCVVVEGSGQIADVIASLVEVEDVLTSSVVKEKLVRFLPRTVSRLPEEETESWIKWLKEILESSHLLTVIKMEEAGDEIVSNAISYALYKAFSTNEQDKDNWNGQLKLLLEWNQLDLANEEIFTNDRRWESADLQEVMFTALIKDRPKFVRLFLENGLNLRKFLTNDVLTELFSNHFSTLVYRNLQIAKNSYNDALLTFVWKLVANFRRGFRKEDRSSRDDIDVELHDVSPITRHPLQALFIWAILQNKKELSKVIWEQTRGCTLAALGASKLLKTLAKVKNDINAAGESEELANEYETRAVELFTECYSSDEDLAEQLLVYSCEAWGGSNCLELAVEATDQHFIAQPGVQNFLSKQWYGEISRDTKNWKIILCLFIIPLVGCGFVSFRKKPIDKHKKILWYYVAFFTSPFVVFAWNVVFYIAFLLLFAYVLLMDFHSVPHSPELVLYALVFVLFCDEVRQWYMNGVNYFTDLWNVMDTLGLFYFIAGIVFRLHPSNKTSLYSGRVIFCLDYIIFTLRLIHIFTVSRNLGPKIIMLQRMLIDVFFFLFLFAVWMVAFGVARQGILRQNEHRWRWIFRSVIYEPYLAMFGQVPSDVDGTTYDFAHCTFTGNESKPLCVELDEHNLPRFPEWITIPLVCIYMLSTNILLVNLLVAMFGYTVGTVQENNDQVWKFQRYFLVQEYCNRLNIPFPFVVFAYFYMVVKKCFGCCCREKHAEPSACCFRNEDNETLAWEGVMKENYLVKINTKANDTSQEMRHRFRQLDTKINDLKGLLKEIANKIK", "assay": "In vitro canine TRPM8 functional assay (Ca2+-sensitive fluorescent dye, icilin activation)", "format": "cell-based", "details": "HEK293 cells stably expressing canine TRPM8, icilin-induced Ca2+ response; for IC50: eight-point concentration-response", "method": "The functional activity of representative compounds of the formula (I) of the present invention was quantified by measuring changes in intracellular calcium concentration using a Ca^2+-sensitive fluorescent dye. The changes in fluorescent signal were monitored by a fluorescence plate reader, either a FLIPR™ (Molecular Devices) or FDSS (Hamamatsu).\nHEK293 cells stably expressing canine TRPM8 were routinely grown as monolayers in Dulbecco's minimum essential medium supplemented with 10% FBS, 2 mM L-glutamine, 100 units/mL penicillin, 100 ug/mL streptomycin and 400 μg/mL G418. Cells were maintained in 5% CO2 at 37° C. At 24 hr prior to assay, cells were seeded in black wall, clear-base poly-D-lysine coated 384-well plates (BD Biosciences, NJ, USA) at a density of 5,000 cells per well in culture medium and grown overnight in 5% CO2 at 37° C. On assay day, growth media was removed, and cells were loaded with Calcium 3 Dye (Molecular Devices) for 35 min at 37° C., under 5% CO2 and then incubated for 25 min at room temperature and atmosphere. Subsequently, cells were tested for agonist-induced increases in intracellular Ca^2+ levels using FLIPR™ or FDSS. Cells were treated with compounds of the formula (I) at varying concentrations and intracellular Ca^2+ was measured for 5 min prior to the addition of icilin to each well to achieve a final concentration that produces an approximately 80% maximal response.\nMaximal fluorescence intensity (FI) achieved upon addition of icilin was exported from the FLIPR™ or FDSS software and further analyzed using GraphPad Prism 3.02 (Graph Pad Software Inc., CA, U.S.A.). Basal FI was subtracted prior to normalizing data to percent of maximal response. Curves were generated using the average of quadruplicate wells for each data point using nonlinear regression of either sigmoidal dose response or sigmoidal dose response (variable slope). Finally, the EC50 and IC50 values were calculated with the best-fit curve determined by GraphPad Prism", "note": "Structures can show the parent of a compound that is named as a salt."}
{"smiles": "CN1CCN(CCOc2nc(-c3ccccc3Cl)cc3nc(-c4c(Cl)c(C(C)(C)C)nn4C)[nH]c23)CC1", "note": "[Compound 55, 2-(5-tert-Butyl-4-chloro-2-methyl-2H-pyrazol-3-yl)-6-(2-chloro-phenyl)-4-[2-(4-methyl-piperazin-1-yl)-ethoxy]-3H-imidazo[4,5-c]pyridine]", "values": [{"measurement": "inhibition at 0.2 µM", "setting": "HEK293, 0.2 μM compound", "value": 95, "unit": "%"}, {"measurement": "IC50", "value": 54, "unit": "nM"}]}
{"smiles": "CN(C)CCOc1nc(-c2ccccc2Cl)cc2nc(-c3c(Cl)c(C(C)(C)C)nn3C)[nH]c12", "note": "[Compound 56, {2-[2-(5-tert-Butyl-4-chloro-2-methyl-2H-pyrazol-3-yl)-6-(2-chloro-phenyl)-3H-imidazo[4,5-c]pyridin-4-yloxy]-ethyl}-dimethyl-amine]", "values": [{"measurement": "inhibition at 0.2 µM", "setting": "0.2 μM compound", "value": 99, "unit": "%"}, {"measurement": "IC50", "value": 24, "unit": "nM"}]}
{"smiles": "Cn1nc(C(C)(C)C)c(Cl)c1-c1nc2cc(-c3ccccc3C(F)(F)F)nc(OCCO)c2[nH]1", "note": "[Compound 57, 2-[2-(5-tert-Butyl-4-chloro-2-methyl-2H-pyrazol-3-yl)-6-(2-trifluoromethyl-phenyl)-3H-imidazo[4,5-c]pyridin-4-yloxy]-ethanol]", "values": [{"measurement": "inhibition at 0.2 µM", "setting": "0.2 μM compound", "value": 101, "unit": "%"}, {"measurement": "IC50", "value": 1.6, "unit": "nM"}]}
{"smiles": "Cn1nc(C(C)(C)C)c(Cl)c1-c1nc2cc(-c3ccccc3Cl)nc(OCCO)c2[nH]1", "note": "[Compound 58, 2-[2-(5-tert-Butyl-4-chloro-2-methyl-2H-pyrazol-3-yl)-6-(2-chloro-phenyl)-3H-imidazo[4,5-c]pyridin-4-yloxy]-ethanol]", "values": [{"measurement": "inhibition at 0.2 µM", "setting": "0.2 μM compound", "value": 101, "unit": "%"}, {"measurement": "IC50", "value": 2, "unit": "nM"}]}
{"smiles": "COc1cc(-c2ccccc2C(F)(F)F)nc2nc(-c3onc(C(C)(C)C)c3C#N)[nH]c12", "note": "[Compound 70, 3-tert-Butyl-5-[7-methoxy-5-(2-trifluoromethyl-phenyl)-1H-imidazo[4,5-b]pyridin-2-yl]-isoxazole-4-carbonitrile methanesulfonic acid salt]", "values": [{"measurement": "inhibition at 0.2 µM", "setting": "0.2 μM compound", "value": 36, "unit": "%"}]}
{"smiles": "Cn1nc(C(C)(C)C)c(Cl)c1-c1nc2cc(-c3ccccc3C(F)(F)F)nc(Cl)c2[nH]1", "note": "[Compound 71, 2-(5-tert-Butyl-4-chloro-2-methyl-2H-pyrazol-3-yl)-4-chloro-6-(2-trifluoromethyl-phenyl)-3H-imidazo[4,5-c]pyridine Hydrochloride]", "values": [{"measurement": "inhibition at 0.2 µM", "setting": "0.2 μM compound", "value": 100, "unit": "%"}, {"measurement": "IC50", "value": 8.8, "unit": "nM"}]}
{"smiles": "Cn1nc2c(c1-c1nc3c(Cl)nc(-c4ccccc4C(F)(F)F)cc3[nH]1)CCC21CCCCC1", "note": "[Compound 72, 3′-{4-Chloro-6-[2-(trifluoromethyl)phenyl]-1H-imidazo[4,5-c]pyridin-2-yl}-2′-methyl-4′,5′-dihydro-2′H-spiro[cyclohexane-1,6′-cyclopenta[c]pyrazole] hydrochloride]", "values": [{"measurement": "inhibition at 0.2 µM", "setting": "0.2 μM compound", "value": 95, "unit": "%"}, {"measurement": "IC50", "value": 63, "unit": "nM"}]}
{"smiles": "CC(C)(C)c1cc(-c2nc3cc(-c4ccccc4C(F)(F)F)nc(Cl)c3[nH]2)on1", "note": "[Compound 73, 2-(3-tert-Butyl-isoxazol-5-yl)-4-chloro-6-(2-trifluoromethyl-phenyl)-3H-imidazo[4,5-c]pyridine hydrochloride]", "values": [{"measurement": "inhibition at 0.2 µM", "setting": "0.2 μM compound", "value": 100, "unit": "%"}, {"measurement": "IC50", "value": 28, "unit": "nM"}]}
{"smiles": "Cn1nc(C(C)(C)C)cc1-c1nc2cc(-c3ccccc3C(F)(F)F)nc(Cl)c2[nH]1", "note": "[Compound 74, 2-(5-tert-Butyl-2-methyl-2H-pyrazol-3-yl)-4-chloro-6-(2-trifluoromethyl-phenyl)-3H-imidazo[4,5-c]pyridine hydrochloride]", "values": [{"measurement": "inhibition at 0.2 µM", "setting": "0.2 μM compound", "value": 93, "unit": "%"}, {"measurement": "IC50", "value": 96, "unit": "nM"}]}
{"smiles": "Cn1nc(C(C)(C)C)c(C#N)c1-c1nc2cc(-c3ccccc3C(F)(F)F)nc(Cl)c2[nH]1", "note": "[Compound 75, 3-tert-Butyl-5-[4-chloro-6-(2-trifluoromethyl-phenyl)-3H-imidazo[4,5-c]pyridin-2-yl]-1-methyl-1H-pyrazole-4-carbonitrile Hydrochloride]", "values": [{"measurement": "inhibition at 0.2 µM", "setting": "0.2 μM compound", "value": 100, "unit": "%"}, {"measurement": "IC50", "value": 24, "unit": "nM"}]}
{"smiles": "COCCOc1cc(-c2ccccc2C(F)(F)F)nc2nc(-c3c(Cl)c(C(C)(C)C)nn3C)[nH]c12", "note": "[Compound 76, 2-(5-tert-Butyl-4-chloro-2-methyl-2H-pyrazol-3-yl)-7-(2-methoxy-ethoxy)-5-(2-trifluoromethyl-phenyl)-1H-imidazo[4,5-b]pyridine methanesulfonic acid salt]", "values": [{"measurement": "inhibition at 0.2 µM", "setting": "HEK293, 0.2 μM compound", "value": 98, "unit": "%"}, {"measurement": "IC50", "value": 5.8, "unit": "nM"}]}
{"smiles": "COc1nc(-c2ccccc2C(F)(F)F)cc2nc(-c3c(F)c(C(C)(C)C)nn3C)[nH]c12", "note": "[Compound 78, 2-(5-tert-Butyl-4-fluoro-2-methyl-2H-pyrazol-3-yl)-4-methoxy-6-(2-trifluoromethyl-phenyl)-3H-imidazo[4,5-c]pyridine methanesulfonic acid salt]", "values": [{"measurement": "inhibition at 0.2 µM", "setting": "0.2 μM compound", "value": 100, "unit": "%"}, {"measurement": "IC50", "value": 16, "unit": "nM"}]}
{"smiles": "COc1c(C(C)(C)C)nn(C)c1-c1nc2cc(-c3ccccc3C(F)(F)F)nc(OC)c2[nH]1", "note": "[Compound 79, 2-(5-tert-Butyl-4-methoxy-2-methyl-2H-pyrazol-3-yl)-4-methoxy-6-(2-trifluoromethyl-phenyl)-3H-imidazo[4,5-c]pyridine methanesulfonic acid salt]", "values": [{"measurement": "inhibition at 0.2 µM", "setting": "0.2 μM compound", "value": 101, "unit": "%"}, {"measurement": "IC50", "value": 20, "unit": "nM"}]}
{"smiles": "COc1nc(-c2ccccc2C(F)(F)F)cc2nc(-c3cc(C(C)(C)C)nn3C)[nH]c12", "note": "[Compound 80, 2-(5-tert-Butyl-2-methyl-2H-pyrazol-3-yl)-4-methoxy-6-(2-trifluoromethyl-phenyl)-3H-imidazo[4,5-c]pyridine methanesulfonic acid salt]", "values": [{"measurement": "inhibition at 0.2 µM", "setting": "0.2 μM compound", "value": 100, "unit": "%"}, {"measurement": "IC50", "value": 42, "unit": "nM"}]}
{"smiles": "COc1cc(-c2ccccc2C(F)(F)F)nc2nc(-c3cc(C(C)(C)C)nn3C)[nH]c12", "note": "[Compound 81, 2-(5-tert-Butyl-2-methyl-2H-pyrazol-3-yl)-7-methoxy-5-(2-trifluoromethyl-phenyl)-1H-imidazo[4,5-b]pyridine hydrochloride]", "values": [{"measurement": "inhibition at 0.2 µM", "setting": "0.2 μM compound", "value": 67, "unit": "%"}, {"measurement": "IC50", "value": 120, "unit": "nM"}]}
{"smiles": "Cn1nc(C(C)(C)C)c(C#N)c1-c1nc2cc(-c3ccccc3Cl)nc(OCCO)c2[nH]1", "note": "[Compound 83, 3-tert-Butyl-5-[6-(2-chloro-phenyl)-4-(2-hydroxy-ethoxy)-3H-imidazo[4,5-c]pyridin-2-yl]-1-methyl-1H-pyrazole-4-carbonitrile]", "values": [{"measurement": "inhibition at 0.2 µM", "setting": "0.2 μM compound", "value": 99, "unit": "%"}, {"measurement": "IC50", "value": 1.8, "unit": "nM"}]}
{"smiles": "Cn1nc(C(C)(C)C)c(C#N)c1-c1nc2cc(-c3ccccc3C(F)(F)F)nc(OCCO)c2[nH]1", "note": "[Compound 84, 3-tert-Butyl-5-[4-(2-hydroxy-ethoxy)-6-(2-trifluoromethyl-phenyl)-3H-imidazo[4,5-c]pyridin-2-yl]-1-methyl-1H-pyrazole-4-carbonitrile]", "values": [{"measurement": "inhibition at 0.2 µM", "setting": "0.2 μM compound", "value": 100, "unit": "%"}, {"measurement": "IC50", "value": 1.9, "unit": "nM"}]}
{"smiles": "Cn1nc(C(C)(C)C)c(C#N)c1-c1nc2cc(-c3ccccc3Cl)nc(OCC(=O)O)c2[nH]1", "note": "[Compound 85, [2-(5-tert-Butyl-4-cyano-2-methyl-2H-pyrazol-3-yl)-6-(2-chloro-phenyl)-3H-imidazo[4,5-c]pyridin-4-yloxy]-acetic acid]", "values": [{"measurement": "inhibition at 0.2 µM", "setting": "0.2 μM compound", "value": 32, "unit": "%"}]}
{"smiles": "Cn1nc(C(C)(C)C)c(C#N)c1-c1nc2cc(-c3ccccc3C(F)(F)F)nc(OCC(=O)O)c2[nH]1", "note": "[Compound 86, [2-(5-tert-Butyl-4-cyano-2-methyl-2H-pyrazol-3-yl)-6-(2-trifluoromethyl-phenyl)-3H-imidazo[4,5-c]pyridin-4-yloxy]-acetic acid]", "values": [{"measurement": "inhibition at 0.2 µM", "setting": "0.2 μM compound", "value": 49, "unit": "%"}]}
{"smiles": "Cn1nc(C(C)(C)C)c(Cl)c1-c1nc2cc(-c3ccccc3Cl)nc(OCC(=O)O)c2[nH]1", "note": "[Compound 87, [2-(5-tert-Butyl-4-chloro-2-methyl-2H-pyrazol-3-yl)-6-(2-chloro-phenyl)-3H-imidazo[4,5-c]pyridin-4-yloxy]-acetic acid]", "values": [{"measurement": "inhibition at 0.2 µM", "setting": "HEK293, 0.2 μM compound", "value": 72, "unit": "%"}, {"measurement": "IC50", "value": 131, "unit": "nM"}]}
{"smiles": "Cn1nc(C(C)(C)C)c(Cl)c1-c1nc2cc(-c3ccccc3C(F)(F)F)nc(OCC(=O)O)c2[nH]1", "note": "[Compound 88, [2-(5-tert-Butyl-4-chloro-2-methyl-2H-pyrazol-3-yl)-6-(2-trifluoromethyl-phenyl)-3H-imidazo[4,5-c]pyridin-4-yloxy]-acetic acid]", "values": [{"measurement": "inhibition at 0.2 µM", "setting": "0.2 μM compound", "value": 36, "unit": "%"}]}
{"smiles": "Cn1nc(C(C)(C)C)c(Cl)c1-c1nc2cc(-c3ccccc3Cl)nc(OCC(F)(F)F)c2[nH]1", "note": "[Compound 89, 2-(5-tert-Butyl-4-chloro-2-methyl-2H-pyrazol-3-yl)-6-(2-chlorophenyl)-4-(2,2,2-trifluoro-ethoxy)-3H-imidazo[4,5-c]pyridine sodium salt]", "values": [{"measurement": "inhibition at 0.2 µM", "setting": "0.2 μM compound", "value": 100, "unit": "%"}, {"measurement": "IC50", "value": 0.53, "unit": "nM"}]}
{"smiles": "Cn1nc(C(C)(C)C)c(Cl)c1-c1nc2cc(-c3ccccc3OC(F)(F)F)nc(OCC(F)(F)F)c2[nH]1", "note": "[Compound 90, 2-(5-tert-Butyl-4-chloro-2-methyl-2H-pyrazol-3-yl)-4-(2,2,2-trifluoro-ethoxy)-6-(2-trifluoromethoxyphenyl)-3H-imidazo[4,5-c]pyridine sodium salt]", "values": [{"measurement": "inhibition at 0.2 µM", "setting": "0.2 μM compound", "value": 99, "unit": "%"}, {"measurement": "IC50", "value": 0.73, "unit": "nM"}]}
{"smiles": "Cn1nc(C(C)(C)C)c(Cl)c1-c1nc2cc(-c3ccccc3F)nc(OCC(F)(F)F)c2[nH]1", "note": "[Compound 91, 2-(5-tert-Butyl-4-chloro-2-methyl-2H-pyrazol-3-yl)-6-(2-fluorophenyl)-4-(2,2,2-trifluoroethoxy)-3H-imidazo[4,5-c]pyridine sodium salt]", "values": [{"measurement": "inhibition at 0.2 µM", "setting": "0.2 μM compound", "value": 99, "unit": "%"}, {"measurement": "IC50", "value": 3.8, "unit": "nM"}]}
